Data reported in ChEMBL document CHEMBL3399952, “Design and synthesis of novel anti-tuberculosis agents from the celecoxib pharmacophore” (Bioorg Med Chem, 2015).
Active and inactive are the calls of the source.

Assays:
Format in all cases: functional, organism-based
[1] = test system: Mycobacterium tuberculosis; assay: Antimycobacterial activity against isoniazid, streptomycin-resistant Mycobacterium tuberculosis Strain 13E assessed as reduction in growth measured at 2.5 uM after 90 hrs by optical density-based broth culture growth assay
[2] = test system: Mycobacterium tuberculosis; assay: Antimycobacterial activity against isoniazid, ethambutol-resistant Mycobacterium tuberculosis Strain 11J assessed as reduction in growth measured at 2.5 uM after 90 hrs by optical density-based broth culture growth assay
[3] = test system: Mycobacterium tuberculosis; assay: Antimycobacterial activity against rifampicin, streptomycin-resistant Mycobacterium tuberculosis Strain 13B assessed as reduction in growth measured at 2.5 uM after 90 hrs by optical density-based broth culture growth assay

Measured: inhibition

CNC(=O)CCc1cc(-c2ccc(-c3ccc(C(F)(F)F)cc3)cc2)n(-c2ccc(NC(=O)c3ccncc3)cc2)n1
active: [1] | [2] | [3]

CNC(=O)CCc1cc(-c2ccc(-c3ccc(C(F)(F)F)cc3)cc2)n(-c2ccc(NC(=O)c3ccnc(C)c3)cc2)n1
active: [1] | [2] | [3]

CNC(=O)CCc1cc(-c2ccc(-c3ccc(C(F)(F)F)cc3)cc2)nn1-c1ccc(NC(=O)c2ccncc2)cc1
active: [1] | [2] | [3]

CNC(=O)CCc1cc(-c2ccc(-c3ccc(C(F)(F)F)cc3)cc2)n(-c2ccc(NC(=O)c3ccncc3Cl)cc2)n1
active: [1] | [2] | [3]

CNC(=O)CCc1cc(-c2ccc(-c3ccc(C(F)(F)F)cc3)cc2)n(-c2ccc(NC(=O)c3ccc(N)cc3)cc2)n1
active: [1] | [2] | [3]

CNC(=O)CCc1cc(-c2ccc(-c3ccc(C(F)(F)F)cc3)cc2)n(-c2ccc(NC(=O)c3cn(C)cn3)cc2)n1
active: [1] | [2] | [3]
